In ChEMBL document CHEMBL5584329, “Development of new dehydrocostuslactone derivatives for treatment of atopic dermatitis via inhibition of the NF-κB signaling pathway” (RSC Med Chem, 2024):
Activity calls are given as the source filed them. The rule behind the calls is not given here.

Experiments:
[1] = test system: Mus musculus; assay: Antiinflammatory activity against MC093-induced atopic dermatitis BALB/c mouse model assessed as reduction in ear swelling at 50 to 100 mg/kg, IG administered starting from day 4 to 10 after MC093-stimulation; assay type: functional, organism-based; conditions: dose 50-100 mg/kg, time 7.0 day
[2] = test system: RAW264.7; assay: Inhibition of LPS-induced NO production in mouse RAW264.7 cells at 20 uM preincubated for 2 hrs followed by LPS addition and measured after 24 hrs by Griess assay relative to control; assay type: functional; conditions: time 26 hrs
[3] = test system: Mus musculus; assay: Antiinflammatory activity against MC093-induced atopic dermatitis BALB/c mouse model assessed as reduction in inflammatory cell infiltration in ear at 50 to 100 mg/kg, IG administered starting from day 4 to 10 after MC093-stimulation by H and E staining assay; assay type: functional, organism-based; conditions: dose 50-100 mg/kg, time 7.0 day
[4] = test system: Mus musculus; assay: In vivo inhibition of […] signalling pathway in MC093-induced atopic dermatitis BALB/c mouse model assessed as reduction in P65 phosphorylation level in ear skin at 50 to 100 mg/kg, IG administered starting from day 4 to 10 after MC093-stimulation by immunohistochemistry analysis; assay type: functional, organism-based; conditions: dose 50-100 mg/kg, time 7.0 day
[5] = test system: Mus musculus; assay: Antiinflammatory activity against MC093-induced atopic dermatitis BALB/c mouse model assessed as reduction in scratching latency at 50 to 100 mg/kg, IG administered starting from day 4 to 10 and measured after 30 mins of MC093-stimulation; assay type: functional, organism-based; conditions: dose 50-100 mg/kg, time 7.0 day
[6] = test system: Mus musculus; assay: Antiinflammatory activity against MC093-induced atopic dermatitis BALB/c mouse model assessed as reduction in IL-33 level in serum at 50 to 100 mg/kg, IG administered starting from day 4 to 10 after MC093-stimulation; assay type: functional, organism-based; conditions: dose 50-100 mg/kg, time 7.0 day
[7] = test system: Mus musculus; assay: Antiinflammatory activity against MC093-induced atopic dermatitis BALB/c mouse model assessed as reduction in IL-13 level in serum at 50 to 100 mg/kg, IG administered starting from day 4 to 10 after MC093-stimulation; assay type: functional, organism-based; conditions: dose 50-100 mg/kg, time 7.0 day
[8] = target: MAP kinase p38 (Mus musculus) (UniProt P47811+O08911+Q9WUI1+Q9Z1B7); assay: Inhibition of P38 phosphorylation in LPS-induced mouse RAW264.7 cells preincubated for 2 hrs followed by LPS addition and measured after 24 hrs by Western blot analysis; assay type: cell-based; conditions: dose 2.5-10 µmol, time 26.0 hrs
[9] = test system: Mus musculus; assay: Antiinflammatory activity against MC093-induced atopic dermatitis BALB/c mouse model assessed as reduction in IL-4 level in serum at 50 to 100 mg/kg, IG administered starting from day 4 to 10 after MC093-stimulation; assay type: functional, organism-based; conditions: dose 50-100 mg/kg, time 7.0 day
[10] = test system: Mus musculus; assay: In vivo inhibition of MAPK signalling pathway in MC093-induced atopic dermatitis BALB/c mouse model assessed as reduction in p-JNK/JNK ratio in ear skin at 50 to 100 mg/kg, IG administered starting from day 4 to 10 after MC093-stimulation by Western blot analysis; assay type: functional, organism-based; conditions: dose 50-100 mg/kg, time 7.0 day
[11] = test system: Mus musculus; assay: In vivo inhibition of NFkappaB signalling pathway in IG dosed MC093-induced atopic dermatitis BALB/c mouse model assessed as reduction in IkappaB-alpha phosphorylation level in ear skin starting from day 4 to 10 after MC093-stimulation by Western blot analysis; assay type: functional, organism-based; conditions: dose 50-100 mg/kg, time 7.0 day
[12] = test system: Mus musculus; assay: In vivo inhibition of MAPK signalling pathway in MC093-induced atopic dermatitis BALB/c mouse model assessed as reduction in p-P38/P38 ratio in ear skin at 50 to 100 mg/kg, IG administered starting from day 4 to 10 after MC093-stimulation by Western blot analysis; assay type: functional, organism-based; conditions: dose 50-100 mg/kg, time 7.0 day
[13] = test system: Mus musculus; assay: Antiinflammatory activity against MC093-induced atopic dermatitis BALB/c mouse model assessed as reduction in TSLP level in serum at 50 to 100 mg/kg, IG administered starting from day 4 to 10 after MC093-stimulation; assay type: functional, organism-based; conditions: dose 50-100 mg/kg, time 7.0 day
[14] = test system: Mus musculus; assay: In vivo inhibition of NFkappaB signalling pathway in IG dosed MC093-induced atopic dermatitis BALB/c mouse model assessed as reduction in P65 phosphorylation level in ear skin starting from day 4 to 10 after MC093-stimulation by Western blot analysis; assay type: functional, organism-based; conditions: dose 50-100 mg/kg, time 7.0 day
[15] = test system: Mus musculus; assay: Antiinflammatory activity against MC093-induced atopic dermatitis BALB/c mouse model assessed as reduction in IgE level in serum at 50 to 100 mg/kg, IG administered starting from day 4 to 10 after MC093-stimulation; assay type: functional, organism-based; conditions: dose 50-100 mg/kg, time 7.0 day
[16] = test system: Mus musculus; assay: Antiinflammatory activity against MC093-induced atopic dermatitis BALB/c mouse model assessed as reduction in epidermal thickness of ear at 50 to 100 mg/kg, IG administered starting from day 4 to 10 after MC093-stimulation by H and E staining assay; assay type: functional, organism-based; conditions: dose 50-100 mg/kg, time 7.0 day
[17] = test system: Mus musculus; assay: In vivo inhibition of MAPK signalling pathway in MC093-induced atopic dermatitis BALB/c mouse model assessed as reduction in p-ERK/ERK ratio in ear skin at 50 to 100 mg/kg, IG administered starting from day 4 to 10 after MC093-stimulation by Western blot analysis; assay type: functional, organism-based; conditions: dose 50-100 mg/kg, time 7.0 day
[18] = test system: Mus musculus; assay: Antiinflammatory activity against MC093-induced atopic dermatitis BALB/c mouse model assessed as reduction in number of scratches at 50 to 100 mg/kg, IG administered starting from day 4 to 10 and measured after 30 mins of MC093-stimulation; assay type: functional, organism-based; conditions: dose 50-100 mg/kg, time 7.0 day
[19] = test system: Mus musculus; assay: Antiinflammatory activity against MC093-induced atopic dermatitis BALB/c mouse model assessed as reduction in IL-5 level in serum at 50 to 100 mg/kg, IG administered starting from day 4 to 10 after MC093-stimulation; assay type: functional, organism-based; conditions: dose 50-100 mg/kg, time 7.0 day
[20] = target: Transcription factor p65 (Mus musculus) (UniProt Q04207); assay: Inhibition of P65 phosphorylation in LPS induced mouse RAW264.7 cells preincubated for 2 hrs followed by LPS addition and measured after 24 hrs by Western blot analysis; assay type: cell-based; conditions: dose 2.5-10 µmol, time 26.0 hrs
Transcription factor p65 (Mus musculus), sequence (Q04207 whole entry): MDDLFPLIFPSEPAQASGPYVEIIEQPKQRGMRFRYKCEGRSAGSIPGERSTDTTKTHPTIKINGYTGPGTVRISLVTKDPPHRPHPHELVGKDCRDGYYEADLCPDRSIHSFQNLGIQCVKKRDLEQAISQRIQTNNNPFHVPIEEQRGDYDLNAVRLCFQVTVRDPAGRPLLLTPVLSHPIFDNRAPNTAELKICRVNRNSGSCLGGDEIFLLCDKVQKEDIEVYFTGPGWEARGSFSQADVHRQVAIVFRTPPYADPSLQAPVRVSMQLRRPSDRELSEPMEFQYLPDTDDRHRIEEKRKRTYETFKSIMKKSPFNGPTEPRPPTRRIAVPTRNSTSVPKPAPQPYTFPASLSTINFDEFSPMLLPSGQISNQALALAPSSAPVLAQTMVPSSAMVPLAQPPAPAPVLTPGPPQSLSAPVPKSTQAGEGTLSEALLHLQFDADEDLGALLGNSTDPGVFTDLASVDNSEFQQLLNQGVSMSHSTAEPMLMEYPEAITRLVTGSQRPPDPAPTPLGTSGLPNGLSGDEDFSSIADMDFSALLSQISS

[21] = test system: Mus musculus; assay: Antiinflammatory activity against MC093-induced atopic dermatitis BALB/c mouse model assessed as reduction in HIS level in serum at 50 to 100 mg/kg, IG administered starting from day 4 to 10 after MC093-stimulation; assay type: functional, organism-based; conditions: dose 50-100 mg/kg, time 7.0 day
[22] = Cytotoxicity against mouse RAW264.7 cells assessed as inhibition of cell viability by MTT assay relative to control; assay type: toxicity, cell-based
[23] = test system: Mus musculus; assay: In vivo inhibition of […] signalling pathway in MC093-induced atopic dermatitis BALB/c mouse model assessed as reduction in IkappaB-alpha phosphorylation level in ear skin at 50 to 100 mg/kg, IG administered starting from day 4 to 10 after MC093-stimulation by immunohistochemistry analysis; assay type: functional, organism-based; conditions: dose 50-100 mg/kg, time 7.0 day
[24] = Cytotoxicity against mouse RAW264.7 cells assessed as inhibition of cell viability at 20 uM by MTT assay relative to control; assay type: toxicity, cell-based; conditions: read-out: INH
[25] = target: T1, Inhibitor of nuclear factor kappa-B kinase subunit alpha (Mus musculus) (UniProt Q60680); assay: Inhibition of IkappaB-alpha phosphorylation in LPS induced mouse RAW264.7 cells preincubated for 2 hrs followed by LPS addition and measured after 24 hrs by Western blot analysis; assay type: cell-based; conditions: dose 2.5-10 µmol, time 26.0 hrs
T1 sequence (whole entry): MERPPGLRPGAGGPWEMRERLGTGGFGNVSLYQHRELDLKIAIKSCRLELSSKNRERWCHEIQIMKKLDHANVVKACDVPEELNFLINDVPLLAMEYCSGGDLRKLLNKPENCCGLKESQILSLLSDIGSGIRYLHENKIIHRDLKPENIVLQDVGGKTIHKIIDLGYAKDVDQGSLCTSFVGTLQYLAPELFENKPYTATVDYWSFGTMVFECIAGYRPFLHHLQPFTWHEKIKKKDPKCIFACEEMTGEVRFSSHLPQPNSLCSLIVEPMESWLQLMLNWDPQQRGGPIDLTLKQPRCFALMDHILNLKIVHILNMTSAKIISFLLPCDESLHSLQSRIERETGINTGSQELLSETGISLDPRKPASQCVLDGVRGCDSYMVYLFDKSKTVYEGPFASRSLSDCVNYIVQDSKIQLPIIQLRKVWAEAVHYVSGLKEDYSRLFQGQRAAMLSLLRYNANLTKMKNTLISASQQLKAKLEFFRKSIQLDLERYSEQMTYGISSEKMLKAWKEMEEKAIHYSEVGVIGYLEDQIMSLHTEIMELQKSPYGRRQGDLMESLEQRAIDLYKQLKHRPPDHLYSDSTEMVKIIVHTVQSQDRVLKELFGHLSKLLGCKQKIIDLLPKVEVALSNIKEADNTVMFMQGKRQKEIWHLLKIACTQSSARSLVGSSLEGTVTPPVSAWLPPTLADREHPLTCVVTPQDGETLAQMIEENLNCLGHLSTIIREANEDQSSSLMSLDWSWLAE

[26] = test system: Mus musculus; assay: Antiinflammatory activity against MC093-induced atopic dermatitis BALB/c mouse model assessed as reduction in weight of ear at 50 to 100 mg/kg, IG administered starting from day 4 to 10 after MC093-stimulation; assay type: functional, organism-based; conditions: dose 50-100 mg/kg, time 7.0 day
[27] = test system: RAW264.7; assay: Inhibition of LPS-induced NO production in mouse RAW264.7 cells preincubated for 2 hrs followed by LPS addition and measured after 24 hrs by Griess assay relative to control; assay type: functional, cell-based

Q: For `C=C1CC[C@H]2C(=C)CC[C@H]3C(CN(CCNS(=O)(=O)c4ccc(C(F)(F)F)cc4)S(=O)(=O)c4ccc(C(F)(F)F)cc4)C(=O)O[C@@H]3[C@@H]12` (some centres not stated), which Activity [1] is on record?
A: Active

Q: What about the inhibition at 20 µM [2] of the same compound?
A: 85.1%

Q: And the Activity [3]?
A: Active

Q: What about the inhibition [4] of the same compound?
A: Active

Q: What about the Activity [5] of the same compound?
A: Active

Q: And the Activity [6]?
A: Active

Q: What about the Activity [7] of the same compound?
A: Active

Q: What about the inhibition [8] of the same compound?
A: Dose-Dependent Effect

Q: And the Activity [9]?
A: Active

Q: What about the inhibition [10] of the same compound?
A: inactive

Q: And the inhibition [11]?
A: Dose-Dependent Effect

Q: And the inhibition [12]?
A: inactive

Q: What about the Activity [13] of the same compound?
A: Active

Q: What about the inhibition [14] of the same compound?
A: Dose-Dependent Effect

Q: And the Activity [15]?
A: Active

Q: And the Activity [16]?
A: Active

Q: And the inhibition [17]?
A: inactive

Q: And the Activity [18]?
A: Active

Q: What about the Activity [19] of the same compound?
A: Active

Q: What about the inhibition [20] of the same compound?
A: Dose-Dependent Effect

Q: What about the Activity [21] of the same compound?
A: inactive

Q: And the IC50 [22]?
A: > 40000 nM

Q: And the inhibition [23]?
A: Active

Q: What about the cytotoxicity at 20 µM [24] of the same compound?
A: -6.84%

Q: What about the inhibition [25] of the same compound?
A: Dose-Dependent Effect

Q: And the Activity [26]?
A: Active

Q: And the IC50 [27]?
A: 2080 nM
